Assay results published in PMC6804243, “Small-Molecule Inhibition of UBE2T/FANCL-Mediated Ubiquitylation in the Fanconi Anemia Pathway” (ACS Chemical Biology, 2019).
“Also recorded” adds a separate entry of the source. Where two headings read alike, the source gives them in different places.

What was measured:
[1] = molecular target: T1, UBE2T/FANCLRING (ubiquitylation of GST-FANCLRING) (Homo sapiens, UniProt Q9NW38); assay: biochemical; conditions: for LE: ligand efficiency = 1.4(–logIC50)/HAC; for inhibition at 20 µM: read-out: Primary screen % Inhibition (20 M)
T1 sequence (Q9NW38 275-375 limits assumed): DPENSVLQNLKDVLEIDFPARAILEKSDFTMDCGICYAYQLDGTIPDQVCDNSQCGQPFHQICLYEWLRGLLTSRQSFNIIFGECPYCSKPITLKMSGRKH
Text: To identify small-molecule inhibitors of the FA pathway, we developed a high-throughput screen (HTS) compatible assay based on the FA ubiquitylation cascade (see Figure 1a, as well as Figure S1 in the Supporting Information). Given the complexity of the full FA ubiquitylation cascade, we constructed a simplified ubiquitylation reaction that would be robust for HTS purposes yet still provide many relevant protein species for small molecules to interact with. The recombinant protein assay developed used homogeneous time-resolved fluorescence (HTRF) and contained Cy5-labeled ubiquitin, the E1 enzyme UBE1, the E2 enzyme UBE2T, and the RING domain (residues 275–375) of the E3 FANCL (FANCLRING). FANCLRING was used as a surrogate substrate for ubiquitylation in the absence of the FA core and FANCD2/FANCI complexes.
Figure 1 Screening for inhibitors of the FA pathway. (a) Schematic of the HTRF ubiquitylation assay. Ubiquitylation of GST-tagged E3 (FANCLRING) by the E2 (UBE2T) places Cy5-labeled ubiquitin in close proximity to the anti-GST Tb cryptate. Excitation of the Tb cryptate donor results in FRET to the Cy5 acceptor. Simultaneous monitoring of the donor emission (620 nm) and acceptor emission (665 nm) allows for determination of the 665/620 ratio. (b) HTRF screen results showing average inhibition (n = 2) produced by compounds at 20 μM (in-house diversity library; 10 111 compounds) and 10 μM (Selleckchem epigenetic library; 119 compounds). Numbers given in parentheses represent the number of compounds per inhibition threshold.
Purified protein was concentrated using a Vivaspin-6 concentrator with a 10 kDa MW cut-off (Vivascience) and flash-frozen in small aliquots for storage at […]
Cy5 labelling of ubiquitin. To a 5 mg/mL solution of recombinant human ubiquitin (Boston Biochem) in 0.1 M NaHCO3 pH 8.3, was added a 4-fold molar excess of Cyanine5 NHS ester (Lumiprobe). The reaction was incubated at 23 °C for 4 hours in the dark. The protein was separated from unreacted dye by passage through a PD-10 desalting column (GE Healthcare) equilibrated with PBS. Purified protein was concentrated using a Vivaspin-6 concentrator with a 3 kDa MW cut-off (Vivascience) and flash-frozen in small aliquots for storage […]
Homogeneous Time-Resolved Fluorescence (HTRF) Assay. GST-FANCLRING (200 nM) was incubated with anti-GST Tb (CisBio, #61GSTTL) (2.5 ng final) at room temperature for 30 minutes in assay buffer (50 mM Tris-HCl pH 8.0, 1 mM TCEP, 5 mM MgCl2, 0.005% Tween-20). Meanwhile, 10 μL of UBE2T in assay buffer (or assay buffer alone for no enzyme controls) was incubated in a white 384-well plate (Corning) with 20 nL DMSO or compound in DMSO. After 30 minutes, the GST-RINGRING solution was added to an equal volume solution containing His-UBE1 (Boston Biochem) (16 nM), Cy5-ubiquitin (400 nM), ATP (0.8 mM) in assay buffer. 10 μL of this solution was immediately added to each well of the 384 -well plate containing UBE2T or buffer. F inal concentrations: His -UBE1 (4 nM), UBE2T (6 nM), GST -RINGRING (50 nM), Cy5-ubiquitin (100 nM), ATP (0.2 mM), compound (10 or 20 μM) in 0.1 %
(v/v) DMSO. After a 10 minute incubation at 23 °C, 5 µL of a 50 mM EDTA solution were added to each well to stop the reaction. Signal was measured at λEx 340 nm and λEm 665 nm and 620 nm using a PHERAstar FS plate reader
(BMG Labtech). A ratio was calculated as [λEm(665)/λEm(620)] × 104 for each well and this was used to determine the percent inhibition for test compounds.
Gel-based ubiquitylation assays. Assays were carried out in a total volume of 10 µL containing 20 nM His6-UBE1 (Boston Biochem), 50 nM UBE2T, 250 nM GST-E3 and 500 nM biotinylated ubiquitin (Boston Biochem) in buffer (50

UBE2T = system: T2, UBE2T; assay: Gel-based ubiquitylation assay (UBE2T/GST-FANCLRING), blot probed for UBE2T; type: biochemical; conditions: compound 100 μM, Western blot probed for UBE2T
T2 construct: His6 (N); made in house; host or cells: E. coli Rosetta (DE3)

[2] = library stock, 10-point dose-response, read-out: Primary screen IC50
[3] = printed beside the structures in Figure S3, read-out: IC50 (Figure S3)

## NCCN1C(=O)CC[C@H]2CN(Cc3cccc(-c4ccco4)c3)CC[C@H]21 [CU1]
[1]; [2]
  IC50: 15.2 µM
[1]
  LE: 0.23
  inhibition at 20 µM: 48.4%
[1]; [3]
  IC50: 56 µM
UBE2T
  ubiquitylation of UBE2T: did not affect ubiquitylation of either UBE2T or UBE1; also recorded: unaffected

## CCN1CCN(c2cc(C)nc3nc(CN4CCCCC4C)nn23)CC1 (centres unmarked) [CU2]
[1]; [2]
  IC50: 8.4 µM
[1]
  LE: 0.26
  inhibition at 20 µM: 63.4%
[1]; [3]
  IC50: 14.8 µM
UBE2T
  ubiquitylation of UBE2T: did not affect ubiquitylation of either UBE2T or UBE1
UBE2T; listed as 2
  ubiquitylation of UBE2T: unaffected

## Cc1nnc(N(C)CC2CCN(CC(C)O)CC2)c(C#N)c1C (centres unmarked) [CU9]
[1]; [2]
  IC50: 31.4 µM
[1]
  LE: 0.26
  inhibition at 20 µM: 48.2%
[1]; [3]
  IC50: 45.4 µM
UBE2T
  ubiquitylation of UBE2T: did not affect ubiquitylation of either UBE2T or UBE1
UBE2T; listed as 9
  ubiquitylation of UBE2T: unaffected

## NC(=O)[C@@H]1CCCN1C(=O)c1cc(-n2cccc2)ccc1Cl [CU12]
[1]; [2]
  IC50: 11.5 µM
[1]
  LE: 0.32
[1]; primary screen, compound at 20 μM (head prints '20 M'), n = 2
  inhibition at 20 µM: 107%
[1]; [3]
  IC50: 9.9 µM
UBE2T
  ubiquitylation of UBE2T: prevented the ubiquitylation of UBE2T
UBE2T; listed as 12
  ubiquitylation of UBE2T: essentially completely inhibited
